Molecules are shown by their SMILES.

The assay deals with human recombinant ATX (Homo sapiens, UniProt Q13822). Put plainly: Autotaxin (ATX) activity Quanta Red assay. It is filed as biochemical. As to conditions: read-out: Activity (ATX activity, Quanta Red assay; IC50). Here is the method: The reaction was stopped after 2 hours with a 20 μL addition of Quanta Red Stop solution (1:20 dilution in distilled water). The above-described mixture with DMSO alone was used as a positive control whereas that with DMSO alone without ATX was taken as a negative control.
Fluorescence was determined in a BMG Labtech Pherastar plus plate reader ([…]). Data were analysed using Excel fit software. IC50 values were determined in duplicate.
On to `CC(NC(=O)CCc1nc2cccnc2n1Cc1ccc(OC(F)(F)F)cc1)c1ccncc1` (centres unmarked) [Example 34, N-(1-Pyridin-4-yl-ethyl)-3-[3-(4-trifluoromethoxy-benzyl)-3H-imidazo[4,5-b]pyridin-2-yl]-propionamide], for which the IC50 stood at 0.006 µM.

Regarding `O=C(CCc1nc2cccnc2n1Cc1ccc(F)c(F)c1)NC(CO)c1ccc(Cl)cc1` (centres unmarked) [Example 35, N-[1-(4-Chloro-phenyl)-2-hydroxy-ethyl]-3-[3-(3,4-difluoro-benzyl)-3H-imidazo[4,5-b]pyridin-2-yl]-propionamide], the IC50 was 0.007 µM.

In the case of `O=C(CCc1nc2cccnc2n1Cc1ccc(OC(F)(F)F)cc1)NC[C@@H](O)c1ccccc1` [Example 36, N-((S)-2-Hydroxy-2-phenyl-ethyl)-3-[3-(4-trifluoromethoxy-benzyl)-3H-imidazo[4,5-b]pyridin-2-yl]-propionamide], the IC50 came to 0.007 µM.

For the compound `O=C(CCc1nc2cccnc2n1Cc1ccc(OC(F)(F)F)cc1)NC[C@H](O)c1ccccc1` [Example 37, N-((R)-2-Hydroxy-2-phenyl-ethyl)-3-[3-(4-trifluoromethoxy-benzyl)-3H-imidazo[4,5-b]pyridin-2-yl]-propionamide], the IC50 turned out to be 0.007 µM.

On to `O=C(CCc1nc2cccnc2n1Cc1ccc(OC(F)(F)F)cc1)N[C@H]1CCCc2ccccc21` [Example 38, N-(S)-1,2,3,4-Tetrahydro-naphthalen-1-yl-3-[3-(4-trifluoromethoxy-benzyl)-3H-imidazo[4,5-b]pyridin-2-yl]-propionamide], for which the IC50 was 0.009 µM.

Take `O=C(CCc1nc2cccnc2n1Cc1ccc(F)c(F)c1)NC(CO)c1ccc(OC(F)(F)F)cc1` (centres unmarked) [Example 39, 3-[3-(3,4-Difluoro-benzyl)-3H-imidazo[4,5-b]pyridin-2-yl]-N-[2-hydroxy-1-(4-trifluoromethoxy-phenyl)-ethyl]-propionamide]: the IC50 came to 0.007 µM.

As for `C[C@H](NC(=O)CCc1nc2cccnc2n1Cc1ccc(OC(F)(F)F)cc1)[C@H](O)c1ccccc1` [Example 41, N-((1S,2R)-2-Hydroxy-1-methyl-2-phenyl-ethyl)-3-[3-(4-trifluoromethoxy-benzyl)-3H-imidazo[4,5-b]pyridin-2-yl]-propionamide], the IC50 was determined as 0.01 µM.

As for `O=C(CCc1nc2cccnc2n1Cc1ccc(OC(F)(F)F)cc1)NCC1CCCCC1` [Example 42, N-Cyclohexylmethyl-3-[3-(4-trifluoromethoxy-benzyl)-3H-imidazo[4,5-b]pyridin-2-yl]-propionamide], the IC50 was 0.011 µM.

On to `CC(NC(=O)CCc1nc2cccnc2n1Cc1ccc(OC(F)(F)F)cc1)C1CCN(C(=O)OC(C)(C)C)CC1` (centres unmarked) [Example 43, 4-(1-{3-[3-(4-Trifluoromethoxy-benzyl)-3H-imidazo[4,5-b]pyridin-2-yl]-propionylamino}-ethyl)-piperidine-1-carboxylic acid tert-butyl ester], for which the IC50 was 0.011 µM.

`C[C@H](NC(=O)CCc1nc2cccnc2n1Cc1cccs1)c1ccc(Cl)cc1` [Example 44, N-[(S)-1-(4-Chloro-phenyl)-ethyl]-3-(3-thiophen-2-ylmethyl-3H-imidazo[4,5-b]pyridin-2-yl)-propionamide]: the IC50 amounted to 0.012 µM.

`C[C@H](NC(=O)CCc1nc2cccnc2n1Cc1ccc(F)c(F)c1)c1ccc(N2CCOCC2)cc1` [Example 45, 3-[3-(3,4-Difluoro-benzyl)-3H-imidazo[4,5-b]pyridin-2-yl]-N-[(S)-1-(4-morpholin-4-yl-phenyl)-ethyl]-propionamide]: the IC50 turned out to be 0.017 µM.

For `O=C(CCc1nc2cccnc2n1Cc1ccc(F)c(F)c1)N[C@@H]1c2ccccc2C[C@@H]1O` [Example 46, 3-[3-(3,4-Difluoro-benzyl)-3H-imidazo[4,5-b]pyridin-2-yl]-N-((1R,2S)-2-hydroxy-indan-1-yl)-propionamide], the IC50 came out at 0.018 µM.

`O=C(CCc1nc2cccnc2n1Cc1ccc(F)cc1)NC(CO)c1ccc(F)cc1` (centres unmarked) [Example 47, 3-[3-(4-Fluoro-benzyl)-3H-imidazo[4,5-b]pyridin-2-yl]-N-[1-(4-fluoro-phenyl)-2-hydroxy-ethyl]-propionamide]: the IC50 was determined as 0.019 µM.

Consider `O=C(CCc1nc2cccnc2n1Cc1ccc(F)c(F)c1)NC(CCO)c1ccc(F)cc1` (centres unmarked) [Example 48, 3-[3-(3,4-Difluoro-benzyl)-3H-imidazo[4,5-b]pyridin-2-yl]-N-[1-(4-fluoro-phenyl)-3-hydroxy-propyl]-propionamide], for which the IC50 worked out at 0.019 µM.

On to `C[C@@H](NC(=O)CCc1nc2cccnc2n1Cc1ccc(OC(F)(F)F)cc1)c1ccc(Cl)cc1` [Example 49, N-[(R)-1-(4-Chloro-phenyl)-ethyl]-3-[3-(4-trifluoromethoxy-benzyl)-3H-imidazo[4,5-b]pyridin-2-yl]-propionamide], for which the IC50 stood at 0.021 µM.

On to `O=C(CCc1nc2cccnc2n1Cc1ccc(F)c(F)c1)NC(CO)c1ccc(F)cc1` (centres unmarked) [Example 50, 3-[3-(3,4-Difluoro-benzyl)-3H-imidazo[4,5-b]pyridin-2-yl]-N-[1-(4-fluoro-phenyl)-2-hydroxy-ethyl]-propionamide], for which the IC50 came to 0.022 µM.

Take `CC(C)(C)OC(=O)N1CCC(CNC(=O)CCc2nc3cccnc3n2Cc2ccc(OC(F)(F)F)cc2)CC1` [Example 51, 4-({3-[3-(4-Trifluoromethoxy-benzyl)-3H-imidazo[4,5-b]pyridin-2-yl]-propionylamino}-methyl)-piperidine-1-carboxylic acid tert-butyl ester]: the IC50 was found to be 0.022 µM.

For `COc1ccc(CNC(=O)CCc2nc3cc(C)cnc3n2Cc2ccc(OC(F)(F)F)cc2)cc1F` [Example 52, N-(3-Fluoro-4-methoxy-benzyl)-3-[6-methyl-3-(4-trifluoromethoxy-benzyl)-3H-imidazo[4,5-b]pyridin-2-yl]-propionamide], the IC50 was 0.029 µM.

On to `COc1ccc(CNC(=O)CCc2nc3cc(C)cnc3n2Cc2ccc(OC(F)(F)F)cc2)cc1` [Example 53, N-(4-Methoxy-benzyl)-3-[6-methyl-3-(4-trifluoromethoxy-benzyl)-3H-imidazo[4,5-b]pyridin-2-yl]-propionamide], for which the IC50 was determined as 0.038 µM.

As for `CC(C)(C)OC(=O)N1CCC[C@@H](CNC(=O)CCc2nc3cccnc3n2Cc2ccc(OC(F)(F)F)cc2)C1` [Example 54, (S)-3-({3-[3-(4-Trifluoromethoxy-benzyl)-3H-imidazo[4,5-b]pyridin-2-yl]-propionylamino}-methyl)-piperidine-1-carboxylic acid tert-butyl ester], the IC50 was found to be 0.04 µM.

Regarding `O=C(CCc1nc2cccnc2n1Cc1ccc(F)c(F)c1)N[C@H]1CCc2ccccc21` [Example 55, 3-[3-(3,4-Difluoro-benzyl)-3H-imidazo[4,5-b]pyridin-2-yl]-N-(S)-indan-1-yl-propionamide], the IC50 was 0.04 µM.

For the compound `CC(NC(=O)CCc1nc2cccnc2n1Cc1ccc(OC(F)(F)F)cc1)C1CCOCC1` (centres unmarked) [Example 56, N-[1-(Tetrahydro-pyran-4-yl)-ethyl]-3-[3-(4-trifluoromethoxy-benzyl)-3H-imidazo[4,5-b]pyridin-2-yl]-propionamide], the IC50 came to 0.045 µM.

Turning to `O=C(CCc1nc2cccnc2n1Cc1ccc(F)c(F)c1)NCc1ccc(OC(F)(F)F)cc1` [Example 57, 3-[3-(3,4-Difluoro-benzyl)-3H-imidazo[4,5-b]pyridin-2-yl]-N-(4-trifluoromethoxy-benzyl)-propionamide], the IC50 came to 0.058 µM.

Take `CN(C)c1ccc(CNC(=O)CCc2nc3cccnc3n2Cc2ccc(F)cc2)cc1` [Example 58, N-(4-Dimethylamino-benzyl)-3-[3-(4-fluoro-benzyl)-3H-imidazo[4,5-b]pyridin-2-yl]-propionamide]: the IC50 came out at 0.061 µM.

In the case of `O=C(CCc1nc2cccnc2n1Cc1ccc(F)c(F)c1)N[C@@H]1c2ccccc2C[C@H]1O` [Example 59, 3-[3-(3,4-Difluoro-benzyl)-3H-imidazo[4,5-b]pyridin-2-yl]-N-((1R,2R)-2-hydroxy-indan-1-yl)-propionamide], the IC50 was 0.063 µM.

Turning to `C[C@H](NC(=O)CCc1nc2cccnc2n1Cc1ccc(OC(F)(F)F)cc1)C1CC1` [Example 60, N-((S)-1-Cyclopropyl-ethyl)-3-[3-(4-trifluoromethoxy-benzyl)-3H-imidazo[4,5-b]pyridin-2-yl]-propionamide], the IC50 is 0.089 µM.

For `C[C@H](NC(=O)CCc1nc2cc(Br)cnc2n1Cc1ccc(OC(F)(F)F)cc1)c1ccc(Cl)cc1` [Example 61], the IC50 stood at 0.1 µM.

As to `O=C(CCc1nc2cccnc2n1Cc1ccc(OC(F)(F)F)cc1)NCC1CCOCC1` [Example 62, N-(Tetrahydro-pyran-4-ylmethyl)-3-[3-(4-trifluoromethoxy-benzyl)-3H-imidazo[4,5-b]pyridin-2-yl]-propionamide], the IC50 worked out at 0.125 µM.

Regarding `CN(C)c1ccc(CNC(=O)CCc2nc3cccnc3n2Cc2ccc(F)c(F)c2)cc1` [Example 63, 3-[3-(3,4-Difluoro-benzyl)-3H-imidazo[4,5-b]pyridin-2-yl]-N-(4-dimethylamino-benzyl)-propionamide], the IC50 is 0.139 µM.

Regarding `O=C(CCc1nc2cccnc2n1Cc1ccc(F)cc1)N[C@H](CO)c1ccccc1` [Example 64, 3-[3-(4-Fluoro-benzyl)-3H-imidazo[4,5-b]pyridin-2-yl]-N-((S)-2-hydroxy-1-phenyl-ethyl)-propionamide], the IC50 worked out at 0.144 µM.

Turning to `O=C(CCc1nc2cccnc2n1Cc1ccc(F)c(F)c1)NC[C@@H](O)c1ccccc1` [Example 65, 3-[3-(3,4-Difluoro-benzyl)-3H-imidazo[4,5-b]pyridin-2-yl]-N-((S)-2-hydroxy-2-phenyl-ethyl)-propionamide], the IC50 was 0.155 µM.

For the compound `CC(C)(C)OC(=O)N1CCC[C@H](CNC(=O)CCc2nc3cccnc3n2Cc2ccc(OC(F)(F)F)cc2)C1` [Example 66, (R)-3-({3-[3-(4-Trifluoromethoxy-benzyl)-3H-imidazo[4,5-b]pyridin-2-yl]-propionylamino}-methyl)-piperidine-1-carboxylic acid tert-butyl ester], the IC50 is 0.162 µM.
